Measured values: patent US20150202329A1, “Methods and Composition for Detecting Intestinal Cell-Barrier Dysfunction” (priority 2012, published 2015)
Entries after “also recorded” stand apart in the source; their conditions may differ.

Tests used:
polarized T84 monolayers = assay: Caspase-1 activation and cell extrusion in nigericin-treated polarized T84 monolayers (FLICA 1 staining, Western blot); assay type: cell-based, human
Source text: To investigate the morphology of caspase-1-induced IEC extrusion, we applied nigericin, a well-established Nlrp3-dependent inflammasome activator to polarized T84 monolayers. […] Active caspase-1 expression in nigericin-treated T84 cells was confirmed by Western blot analysis (FIG. 1b).
(§1) T84 human colon cancer epithelial cells were maintained in tissue culture plates (10 cm) in Dulbecco's minimal essential medium (DMEM)/F-12, 10% (v/v) heat-inactivated fetal bovine serum (FBS), 1%(w/v) penicillin-streptomycin. The cells were plated onto Transwells (2×10^5 cells/well, 6.5 mm diameter; 0.4 μm-pore size; Corning Life Sciences, Tewksbury, Mass.) and grown until development of apical junctional complexes (as indicated by a transepithelial resistance of >2,000 Ω·cm^2) for studies. For caspase-1 inhibition experiment, prior to nigericin treatment, the tissue culture medium was removed and fresh medium with 50 µM caspase-1 inhibitor (Ac-YVAD-CMK) was introduced. Nigericin (10, 25, 50 µM) was added to both the apical and basolateral aspect of the Transwell. Transepithelial resistance (TER) was measured at before and 3 h after Nigericin treatment, using a Millicell-ERS Voltmeter and chopstick electrodes (Millipore, Bedford, Mass.). […]

T84 monolayers [1] = assay: Trans-epithelial electrical resistance (TER) of T84 monolayers; assay type: cell-based, human
Source text: (§2) To determine whether this form of cell extrusion results in loss of barrier function, we measured the trans-epithelial electrical resistance (TER). […] Given that the breach in the T84 monolayers appeared to be 1-2 μm in diameter on TEM images, we evaluated the epithelial integrity to microparticles (1 μm Fluoresbrite® Microspheres) and microbes (E. coli […]) using the lowest dose of nigericin treatment. […] Fluoresbrite microspheres and E. coli TMW2.497 were recovered in the media from basolateral well.
T84 human colon cancer epithelial cells were maintained in tissue culture plates (10 cm) in Dulbecco's minimal essential medium (DMEM)/F-12, 10% (v/v) heat-inactivated fetal bovine serum (FBS), 1%(w/v) penicillin-streptomycin. The cells were plated onto Transwells (2×10^5 cells/well, 6.5 mm diameter; 0.4 μm-pore size; Corning Life Sciences, Tewksbury, Mass.) and grown until development of apical junctional complexes (as indicated by a transepithelial resistance of >2,000 Ω·cm^2) for studies. For caspase-1 inhibition experiment, prior to nigericin treatment, the tissue culture medium was removed and fresh medium with 50 µM caspase-1 inhibitor (Ac-YVAD-CMK) was introduced. Nigericin (10, 25, 50 µM) was added to both the apical and basolateral aspect of the Transwell. […] For microspheres and […] experiments, after overnight incubation with nigericin, 10^7/ml of 1 μm Microspheres or 10^9/ml E. coli TMW2.497 were added to the apical aspect of Transwell. One hour after incubation with the microspheres or E. coli, the cells were fixed in cold methanol for 5 minutes. Cells were then permeabilized in 0.2%(v/v) Triton X-100 for 15 min and blocked for one hour in PBS with 0.2% (v/v) goat serum and 1%(w/v) BSA.

T84 monolayers [2] = assay: Movement of microspheres and E. coli across the T84 monolayer in Transwell; assay type: cell-based, human; conditions: nigericin 10 μM overnight (lowest dose)
Source text: as §2
as §1, with “Nigericin (10, 25, 50 µM) was added to both the apical and basolateral aspect of the Transwell.” left out

[3] = in vivo; cited from earlier work
IL-10 KO mice [4] = assay: IEC extrusion measured as epithelial gap density by confocal endomicroscopy in IL-10 KO mice; assay type: in vivo, mouse; conditions: 10 mg/kg intraperitoneal, 4, 7 and 10 days
Protocol: (§3) To evaluate the effect of caspase-1 inhibition on IEC extrusion over time in vivo, we treated the IL-10 KO mice with a selective caspase-1 inhibitor Ac-YVAD-CMK (10 mg/kg) over 4, 7 and 10 day (5 times the mean lifespan of rodent)enterocytes^40) via intraperitoneal injections. The control IL-10 KO group received 10 days of equal volume of 2% (v/v) DMSO.
Confocal laser endomicroscopy of the mouse ileum and confocal microscopy of whole mount mouse intestinal tissues for determination of epithelial gap density were performed using previously described methods. Cell culture, human and mouse intestinal slides were imaged using a spinning disc confocal microscope (Quorum Technologies Inc, Guelph, ON) using previously described methods.

IL-10 KO mice [5] = assay: Permeation of orogavaged 0.5 μm microspheres into blood of IL-10 KO mice; assay type: in vivo, mouse; conditions: 10 mg/kg, day 7
Protocol: as §3
For microsphere studies, mice were gavaged with a mixture containing 10^7 Fluoresbrite® YG Microspheres with diameter of 0.5, 1.0, 2.0, 3.0, and 6.0 μm in 200 μl solution as previously described after an overnight fast. Blood samples were collected 4 hours post-administration of the beads. Whole blood mixture was then centrifuged at 1,250×g in pre-heparinized tubes for 10 min at RT, the plasma portion of the samples were removed and centrifuged at 1,250×g for 5 min before flow cytometry analysis. The remaining buffy coat and hematocrit of the samples were lysed with 5 mL of lysing buffer (4.15 g NH4Cl, 0.84 g NaHCO3, 1 ml […] EDTA at pH 8, and 500 mL of ddH2O) at RT, mixed and centrifuged at 1,250×g for 5 min at 4° C.×3. The supernatant was discarded. The WBC pellet was re-suspended in 400 μl of 0.03% PBS with Fetal Bovine Albumin. The plasma and WBC pellet samples were analyzed with flow cytometry for determination of microsphere counts.

With `CO[C@@H]1C[C@@H](C[C@H]2CC[C@H](C)[C@H]([C@@H](C)C(=O)O)O2)O[C@]2(O[C@](C)([C@H]3CC[C@@](C)([C@@H]4O[C@@H]([C@H]5O[C@@](O)(CO)[C@H](C)C[C@@H]5C)C[C@@H]4C)O3)C[C@H]2C)[C@@H]1C` [nigericin, Nigericin] the “active caspase-1 (p10) expression by Western blot” value (polarized T84 monolayers; nigericin 50 μM, T84 cells) was “increased active caspase-1 (p10) expression”, the “activated caspase-1 and cell extrusion by FLICA 1 staining” value (polarized T84 monolayers; nigericin, 3-hours post-treatment) was “increased activated caspase-1 and cell extrusion” and the “TER of T84 monolayers (barrier function)” value (T84 monolayers [1]; nigericin 10, 25, 50 μM, 3 h) was “dose-dependent reduction in TER; also recorded: dose-dependent barrier dysfunction developed”. For the same molecule, the “TER as measured by ECIS over time” value (T84 monolayers [1]; nigericin, overnight) was “time-dependent reduction in TER”, the “movement of 1 μm microspheres and E. coli TMW2.497 across the monolayer” value (T84 monolayers [2]) was “Movements of microspheres and E. coli from the upper chamber through the monolayer to the lower chamber of the Transwell were observed” and the systemic toxicity [3] was “significant systemic toxicity”.

For Ac-YVAD-CMK, the “reversal of nigericin-induced TER reduction measured by ECIS” value (T84 monolayers [1]; nigericin 25 μM, overnight) was “reversed”, the “reversal of nigericin-induced TER reduction / barrier dysfunction” value (T84 monolayers [1]; pre-treatment with caspase-1 inhibitor, nigericin 25 μM, 3 hours and overnight) was “reversed; also recorded: abrogated” and the “IEC extrusion as epithelial gap density” value (IL-10 KO mice [4]) was “Time-dependent reduction in IEC extrusion”. For the same molecule, the “permeation of orogavaged 0.5 μm latex microspheres into blood” value (IL-10 KO mice [5]) was “normalization of permeation”.
